ChEMBL document CHEMBL1926526, “Mefloquine-oxazolidine derivatives, derived from mefloquine and arenecarbaldehydes: In vitro activity including against the multidrug-resistant tuberculosis strain T113” (Bioorg Med Chem, 2012)
Converted amounts (≈) assume the structure as drawn. The source made the active and inactive calls. The rule behind the calls is not given here.

What follows are molecules tested on Mycobacterium tuberculosis (assay: Antimycobacterial activity against multiple drug-resistant Mycobacterium tuberculosis isolate T113 by alamar blue assay).
Format: functional

Question: `COc1cccc(C2O[C@@H](c3cc(C(F)(F)F)nc4c(C(F)(F)F)cccc34)[C@H]3CCCCN23)c1` (mixture of isomers) was tested. Which MIC did it give?
Answer: Its MIC is 25.2 µM.

Question: Which MIC does the source give for `COc1ccc(C2O[C@@H](c3cc(C(F)(F)F)nc4c(C(F)(F)F)cccc34)[C@H]3CCCCN23)cc1` (mixture of isomers) here?
Answer: Its MIC is 25.2 µM.

Question: Which MIC does the source give for `Fc1ccc(C2O[C@@H](c3cc(C(F)(F)F)nc4c(C(F)(F)F)cccc34)[C@H]3CCCCN23)cc1` (mixture of isomers) here?
Answer: The MIC was 25.8 µM.

Question: With `Oc1ccccc1C1O[C@@H](c2cc(C(F)(F)F)nc3c(C(F)(F)F)cccc23)[C@H]2CCCCN12` (mixture of isomers) as the molecule, how does the MIC read?
Answer: Its MIC is 25.9 µM.

Question: `Oc1ccc(C2O[C@@H](c3cc(C(F)(F)F)nc4c(C(F)(F)F)cccc34)[C@H]3CCCCN23)cc1` (mixture of isomers) was tested. Which MIC did it give?
Answer: The MIC was 25.9 µM.

Question: Which MIC does the source give for `COc1ccccc1C1O[C@@H](c2cc(C(F)(F)F)nc3c(C(F)(F)F)cccc23)[C@H]2CCCCN12` (mixture of isomers) here?
Answer: Its MIC is 12.6 µM.

Question: For `O=[N+]([O-])c1ccc(C2O[C@@H](c3cc(C(F)(F)F)nc4c(C(F)(F)F)cccc34)[C@H]3CCCCN23)s1` (mixture of isomers), which MIC is on record?
Answer: Its MIC is 12.1 µM.

Question: With `FC(F)(F)c1cc([C@@H]2OC(c3cccc(Cl)c3Cl)N3CCCC[C@H]23)c2cccc(C(F)(F)F)c2n1` (mixture of isomers) as the molecule, how does the Activity read?
Answer: Its Activity is “inactive”.

Question: `FC(F)(F)c1cc([C@@H]2OC(c3ccc(Cl)c(Cl)c3)N3CCCC[C@H]23)c2cccc(C(F)(F)F)c2n1` (mixture of isomers) was tested. Which Activity did it give?
Answer: The Activity was “inactive”.

Question: For `FC(F)(F)c1cc([C@@H]2OC(c3ccc(Cl)cc3Cl)N3CCCC[C@H]23)c2cccc(C(F)(F)F)c2n1` (mixture of isomers), which Activity is on record?
Answer: The Activity was “inactive”.

Question: For `FC(F)(F)c1cc([C@@H]2OC(c3c(Cl)cccc3Cl)N3CCCC[C@H]23)c2cccc(C(F)(F)F)c2n1` (mixture of isomers), which Activity is on record?
Answer: Its Activity is “inactive”.

Question: How did the MIC turn out when `COc1cccc(C2O[C@@H](c3cc(C(F)(F)F)nc4c(C(F)(F)F)cccc34)[C@H]3CCCCN23)c1OC` (mixture of isomers) was run?
Answer: The MIC was 11.9 µM.

Question: `CCOc1cccc(C2O[C@@H](c3cc(C(F)(F)F)nc4c(C(F)(F)F)cccc34)[C@H]3CCCCN23)c1` (mixture of isomers) was tested. Which MIC did it give?
Answer: The MIC was 24.5 µM.

Question: `COc1cc(C2O[C@@H](c3cc(C(F)(F)F)nc4c(C(F)(F)F)cccc34)[C@H]3CCCCN23)cc(OC)c1OC` (mixture of isomers) was tested. Which MIC did it give?
Answer: The MIC was 22.5 µM.

Question: With `FC(F)(F)c1cc([C@@H]2OC(c3ccccc3)N3CCCC[C@H]23)c2cccc(C(F)(F)F)c2n1` (mixture of isomers) as the molecule, how does the MIC read?
Answer: The MIC was 26.8 µM.

Question: `O=[N+]([O-])c1ccc(C2O[C@@H](c3cc(C(F)(F)F)nc4c(C(F)(F)F)cccc34)[C@H]3CCCCN23)o1` (mixture of isomers) was tested. Which MIC did it give?
Answer: The MIC was 99.8 µM.

Question: Which MIC does the source give for `FC(F)(F)c1cc([C@@H]2OC(c3ncc[nH]3)N3CCCC[C@H]23)c2cccc(C(F)(F)F)c2n1` (mixture of isomers) here?
Answer: The MIC was 27.4 µM.

Question: How did the MIC turn out when `CC[C@@H](CO)NCCN[C@@H](CC)CO` [ETHAMBUTOL] was run?
Answer: The MIC was 61.2 µM (≈ 12.5 µg/mL).

Question: For `OC(c1cc(C(F)(F)F)nc2c(C(F)(F)F)cccc12)C1CCCCN1` (centres undefined) [MEFLOQUINE], which MIC is on record?
Answer: Its MIC is 33 µM (≈ 12.5 µg/mL).
